In ChEMBL document CHEMBL1132928 (J Med Chem, 2000):
Calls of active or inactive are those of the source. The rule behind the calls is not given here. Where a SMILES comes first, the peptide text is derived from it. Bridges are numbered along the chain shown (N, C = ends).

Legend:
[1] = pA2 values were obtained from the dose / response plots; assay type: ADME
Glucagon receptor = Glucagon receptor (Rattus norvegicus, UniProt P30082); test: In vitro receptor binding affinity (95% CL) using rat liver plasma membrane bioassay
Chain of Glucagon receptor (P30082 whole entry): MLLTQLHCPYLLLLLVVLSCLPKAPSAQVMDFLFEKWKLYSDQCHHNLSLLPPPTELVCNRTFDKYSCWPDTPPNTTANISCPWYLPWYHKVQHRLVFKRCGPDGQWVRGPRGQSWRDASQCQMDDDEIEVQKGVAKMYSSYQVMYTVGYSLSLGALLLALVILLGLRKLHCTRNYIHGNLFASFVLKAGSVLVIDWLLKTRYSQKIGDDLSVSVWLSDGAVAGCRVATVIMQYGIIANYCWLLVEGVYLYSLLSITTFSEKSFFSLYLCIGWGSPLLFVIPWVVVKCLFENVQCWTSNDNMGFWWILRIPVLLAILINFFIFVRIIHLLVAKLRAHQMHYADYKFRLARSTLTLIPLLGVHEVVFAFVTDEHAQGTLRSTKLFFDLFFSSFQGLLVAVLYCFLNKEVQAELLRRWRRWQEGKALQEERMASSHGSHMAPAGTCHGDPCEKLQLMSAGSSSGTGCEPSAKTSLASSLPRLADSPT

[2] = In vitro adenylate cyclase activity using rat liver plasma membrane bioassay; assay type: tissue-based
[3] = target: Adenylate cyclase type 5 (Rattus norvegicus) (UniProt Q04400); test: Percent stimulation ofcAMP production was measured in vitro using rat liver plasma membrane bioassay; assay type: functional, cell-free
Chain of Adenylate cyclase type 5 (Rattus norvegicus) (Q04400 whole entry): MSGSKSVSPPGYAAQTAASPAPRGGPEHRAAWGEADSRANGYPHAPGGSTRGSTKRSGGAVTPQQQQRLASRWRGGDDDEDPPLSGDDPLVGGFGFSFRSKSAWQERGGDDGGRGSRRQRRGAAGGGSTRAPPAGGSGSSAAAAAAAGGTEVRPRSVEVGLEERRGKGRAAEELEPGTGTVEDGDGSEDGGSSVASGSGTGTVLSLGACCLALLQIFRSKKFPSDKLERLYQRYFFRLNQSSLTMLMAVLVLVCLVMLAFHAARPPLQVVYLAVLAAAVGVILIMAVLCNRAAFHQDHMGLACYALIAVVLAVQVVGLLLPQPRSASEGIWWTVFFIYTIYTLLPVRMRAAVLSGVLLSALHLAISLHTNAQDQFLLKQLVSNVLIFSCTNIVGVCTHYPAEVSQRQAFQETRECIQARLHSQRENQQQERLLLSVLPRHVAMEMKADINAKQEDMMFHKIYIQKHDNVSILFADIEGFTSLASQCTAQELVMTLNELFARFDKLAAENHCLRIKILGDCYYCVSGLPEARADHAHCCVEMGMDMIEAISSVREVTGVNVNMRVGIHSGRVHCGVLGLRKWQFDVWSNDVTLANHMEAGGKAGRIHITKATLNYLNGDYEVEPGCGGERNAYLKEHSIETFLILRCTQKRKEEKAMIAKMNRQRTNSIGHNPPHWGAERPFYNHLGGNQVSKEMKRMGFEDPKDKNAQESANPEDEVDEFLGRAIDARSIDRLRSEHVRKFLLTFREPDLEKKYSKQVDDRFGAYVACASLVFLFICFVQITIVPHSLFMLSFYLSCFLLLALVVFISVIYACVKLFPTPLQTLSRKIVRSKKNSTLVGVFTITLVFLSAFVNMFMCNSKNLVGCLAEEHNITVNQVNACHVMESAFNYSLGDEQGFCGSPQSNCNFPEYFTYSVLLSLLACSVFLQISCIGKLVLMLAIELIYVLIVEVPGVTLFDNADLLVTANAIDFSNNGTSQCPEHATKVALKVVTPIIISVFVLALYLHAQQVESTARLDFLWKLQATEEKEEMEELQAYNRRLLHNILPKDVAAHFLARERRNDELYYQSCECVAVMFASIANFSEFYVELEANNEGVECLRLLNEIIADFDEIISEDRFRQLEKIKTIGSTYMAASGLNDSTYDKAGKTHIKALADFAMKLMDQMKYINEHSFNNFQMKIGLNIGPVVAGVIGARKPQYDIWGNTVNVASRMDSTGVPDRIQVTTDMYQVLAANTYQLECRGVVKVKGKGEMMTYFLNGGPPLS

[4] = target: Glucagon receptor (Rattus norvegicus) (UniProt P30082); test: In vitro receptor binding affinity using rat liver plasma membrane bioassay; inactive
Chain of Glucagon receptor (Rattus norvegicus) (P30082 whole entry): as the sequence (P30082 whole entry) above

[5] = In vitro adenylate cyclase activity using rat liver plasma membrane bioassay. Value is inactive up to 50 uM
[6] = target: Adenylate cyclase type 5 (Rattus norvegicus) (UniProt Q04400); test: Percent stimulation ofcAMP production was measured in vitro using rat liver plasma membrane bioassay; none; assay type: functional, cell-free

Compound | IC50 (Glucagon receptor) | Potency [2] | Max stimulation [3] | also measured
CSCC[C@H](NC(=O)[C@H](CC(C)C)NC(=O)[C@H](Cc1c[nH]c2ccccc12)NC(=O)[C@H](CCC(N)=O)NC(=O)[C@@H](NC(=O)[C@H](Cc1ccccc1)NC(=O)[C@H](CCC(=O)O)NC(=O)[C@H](CCC(N)=O)NC(=O)[C@H](C)NC(=O)[C@H](CCCCN)NC(=O)[C@H](CCCCN)NC(=O)[C@H](CO)NC(=O)[C@H](CC(=O)O)NC(=O)[C@H](CC(C)C)NC(=O)[C@H](Cc1ccc(O)cc1)NC(=O)[C@@H]1CCCCNC(=O)C[C@H](NC(=O)[C@H](CO)NC(=O)[C@@H](NC(=O)[C@H](Cc2ccccc2)NC(=O)[C@@H](NC(=O)CNC(=O)[C@H](CCC(N)=O)NC(=O)[C@H](CO)NC(=O)[C@@H](N)Cc2cnc[nH]2)[C@@H](C)O)[C@@H](C)O)C(=O)N[C@@H](Cc2ccc(O)cc2)C(=O)N[C@@H](CO)C(=O)N1)C(C)C)C(=O)N[C@@H](CC(N)=O)C(=O)N[C@H](C(N)=O)[C@@H](C)O (H-HSQGTFTSDYSKYLDSKKAQEFVQWLMNT-NH2; lactam 9-12) | 0.25 µM |  |  | pA2 [1]: 6.3
CSCC[C@H](NC(=O)[C@H](CC(C)C)NC(=O)[C@H](Cc1c[nH]c2ccccc12)NC(=O)[C@H](CCC(N)=O)NC(=O)[C@@H](NC(=O)[C@H](Cc1ccccc1)NC(=O)[C@@H]1CCC(=O)NCCCC[C@H](NC(=O)[C@H](CCCCN)NC(=O)[C@H](CO)NC(=O)[C@H](CC(=O)O)NC(=O)[C@H](CC(C)C)NC(=O)[C@H](Cc2ccc(O)cc2)NC(=O)[C@H](CCCCN)NC(=O)[C@H](CO)NC(=O)[C@H](Cc2ccc(O)cc2)NC(=O)[C@H](CC(=O)O)NC(=O)[C@H](CO)NC(=O)[C@@H](NC(=O)[C@H](Cc2ccccc2)NC(=O)[C@@H](NC(=O)CNC(=O)[C@H](CCC(N)=O)NC(=O)[C@H](CO)NC(=O)[C@@H](N)Cc2c[nH]cn2)[C@@H](C)O)[C@@H](C)O)C(=O)N[C@@H](C)C(=O)N[C@@H](CCC(N)=O)C(=O)N1)C(C)C)C(=O)N[C@@H](CC(N)=O)C(=O)N[C@H](C(N)=O)[C@@H](C)O | 0.054 µM |  |  | EC50 (Glucagon receptor): 0.32 µM
CSCC[C@@H](NC(=O)[C@@H](CC(C)C)NC(=O)[C@@H](Cc1c[nH]c2ccccc12)NC(=O)[C@@H](CCC(N)=O)NC(=O)[C@H](NC(=O)[C@H](Cc1ccccc1)NC(=O)[C@H]1CCC(=O)NCCCC[C@H](NC(=O)[C@H](CCCCN)NC(=O)[C@@H](CO)NC(=O)[C@@H](CC(=O)O)NC(=O)[C@@H](CC(C)C)NC(=O)[C@@H](Cc2ccc(O)cc2)NC(=O)[C@@H](CCCCN)NC(=O)[C@@H](CO)NC(=O)[C@@H](Cc2ccc(O)cc2)NC(=O)[C@@H](CC(=O)O)NC(=O)[C@@H](CO)NC(=O)[C@H](NC(=O)[C@@H](Cc2ccccc2)NC(=O)[C@H](NC(=O)CNC(=O)[C@@H](CCC(N)=O)NC(=O)[C@@H](CO)NC(=O)[C@H](N)Cc2c[nH]cn2)[C@H](C)O)[C@H](C)O)C(=O)N[C@@H](C)C(=O)N[C@H](CCC(N)=O)C(=O)N1)C(C)C)C(=O)N[C@H](CC(N)=O)C(=O)N[C@@H](C(N)=O)[C@H](C)O |  | 1.6% | 60% | 
GLUCAGON |  | 100% | 100% | 
CSCC[C@H](NC(=O)[C@H](CC(C)C)NC(=O)[C@H](Cc1c[nH]c2ccccc12)NC(=O)[C@H](CCC(N)=O)NC(=O)[C@@H](NC(=O)[C@@H](Cc1ccccc1)NC(=O)[C@@H]1CCC(=O)NCCCC[C@H](NC(=O)[C@H](CO)NC(=O)[C@@H](CC(=O)O)NC(=O)[C@@H](CC(C)C)NC(=O)[C@H](Cc2ccc(O)cc2)NC(=O)[C@H]2CCCCNC(=O)C[C@H](NC(=O)[C@H](CO)NC(=O)[C@H](NC(=O)[C@@H](Cc3ccccc3)NC(=O)[C@H](NC(=O)CNC(=O)[C@@H](CCC(N)=O)NC(=O)[C@@H](CO)NC(=O)[C@H](N)Cc3c[nH]cn3)[C@H](C)O)[C@H](C)O)C(=O)N[C@@H](Cc3ccc(O)cc3)C(=O)N[C@H](CO)C(=O)N2)C(=O)N[C@@H](CCCCN)C(=O)N[C@H](C)C(=O)N[C@@H](CCC(N)=O)C(=O)N1)C(C)C)C(=O)N[C@@H](CC(N)=O)C(=O)N[C@H](C(N)=O)[C@@H](C)O |  |  |  | IA [4]: inactive; Potency [5]: Inactive up to 50 uM; Max stimulation [6]: inactive
